Laboratory results as given in US10851067B2, “Kv7 channel activators compositions and methods of use” (Knopp Biosciences LLC, priority 2018, dated 2020).

Biological target: Kv7.2/7.3 (Homo sapiens, UniProt O43525+O43526)
Assay: Kv7.2/7.3 Thallium Flux Assay
Assay type: cell-based
Set-up: host or cells: HEK cells, tetracycline-inducible expression
Settings: read-out: Kv7.2/7.3 Activity: EC50 of Kv7.2/Kv7.3 activation
Excerpt: The Thallium Flux Assay is used as a surrogate indicator of potassium channel activity.
The experimental protocol was adapted from the FluxOR™ II Green Potassium Ion Channel Assay User Guide (Pub. No. MAN0016084, Invitrogen). Conditions were optimized for the Kv7.2/7.3 cell line.
The hKV7.2/7.3 cell line was obtained from Chantest (Cleveland, Ohio 44128) cat. #CT6147.
Kv7.2/7.3 cells were maintained in a media containing DMEM/F12; 50/50 (GIBCO cat. #11330), 10% Fetal Bovine Serum (FBS) (GIBCO cat. #26140), 100 units/mL Penicillin-Streptomycin (GIBCO cat. #15140), 0.005 mg/ml Blasticidin (SIGMA 15205), 0.5 mg/mL Geneticin (GIBCO cat. #10131), and 0.1 mg/mL Zeocin (GIBCO cat. #R25001). One day prior to experimentation, cells were plated in 96 well clear bottom plates (Corning cat. #353219) in a media without Blasticidin, Geneticin, or Zeocin. Channel expression was induced by adding tetracycline (Bioline cat. #BIO87030) at a final concentration of 10 ng/mL.
The test compound is diluted in a mixture of 0.1% DMSO/extracellular solution with an eight-point concentration range from 0.014 μM to 30 μM. Serial dilutions were made on a Biomek NXP (BECKMAN COULTER).
Measurement and Data Analysis:
A plate reader (Enspire, Perkin Elmer) is used to characterize the ion-channel modulating properties of novel compounds using an excitation wavelength of 475 nm and an emission wavelength of 530 nm. After a 15 sec baseline measurement, the stimulus buffer containing thallium and potassium is injected. A final endpoint measure is taken after 90 sec. Responses are normalized to positive control (retigabine, 30 µM max). Mean normalized responses at each concentration tested are fit to the standard Hill equation to generate an EC50 and maximal response.

Structure (SMILES)	EC50 [µM]
CC(C)(O)c1cc(F)c2nc(NC(=O)CC3CC(F)(F)C3(F)F)n(C3(C)CCC3)c2c1 (single isomer, unassigned) [Example 500, N-(4-fluoro-6-(2-hydroxypropan-2-yl)-1-(1-methylcyclobutyl)-1H-benzo[d]imidazol-2-yl)-2-(2,2,3,3-tetrafluorocyclobutyl)acetamide]	< 1
CC(C(=O)Nc1nc2c(F)cc(C#N)c(F)c2n1C1(C)CCC1)C1(C(F)(F)F)CC1 (single isomer, unassigned) [Example 544, N-(6-cyano-4,7-difluoro-1-(1-methylcyclobutyl)-1H-benzo[d]imidazol-2-yl)-2-(1-(trifluoromethyl)cyclopropyl)propanamide]	< 1
CC(C)(C)n1c(NC(=O)CC2CC(F)(F)C2(F)F)nc2cc(F)c(Cl)cc21 (single isomer, unassigned) [Example 535, N-(1-(tert-butyl)-6-chloro-5-fluoro-1H-benzo[d]imidazol-2-yl)-2-(2,2,3,3-tetrafluorocyclobutyl)acetamide]	< 1
CC1(n2c(NC(=O)CC3CC(F)(F)C3(F)F)nc3ccc(F)c(F)c32)CCC1 (single isomer, unassigned) [Example 513, N-(6,7-difluoro-1-(1-methylcyclobutyl)-1H-benzo[d]imidazol-2-yl)-2-(2,2,3,3-tetrafluorocyclobutyl)acetamide]	< 1
COc1cc(C#N)cc2c1nc(NC(=O)CC1CC(F)(F)C1(F)F)n2C1(C)CCC1 (single isomer, unassigned) [Example 553, N-(6-cyano-4-methoxy-1-(1-methylcyclobutyl)-1H-benzo[d]imidazol-2-yl)-2-(2,2,3,3-tetrafluorocyclobutyl)acetamide]	< 1
CC1(n2c(NC(=O)CC3CC(F)(F)C3(F)F)nc3c(F)cc(C#N)cc32)CCC1 (single isomer, unassigned) [Example 512, N-(6-cyano-4-fluoro-1-(1-methylcyclobutyl)-1H-benzo[d]imidazol-2-yl)-2-(2,2,3,3-tetrafluorocyclobutyl)acetamide]	< 1
CC1(n2c(NC(=O)CC3CC(F)(F)C3(F)F)nc3ccc(F)c(C#N)c32)CCC1 (single isomer, unassigned) [Example 536, N-(7-cyano-6-fluoro-1-(1-methylcyclobutyl)-1H-benzo[d]imidazol-2-yl)-2-(2,2,3,3-tetrafluorocyclobutyl)acetamide]	< 1
CC(C)(C)n1c(NC(=O)CC2CC(F)(F)C2(F)F)nc2ccc(F)c(F)c21 (single isomer, unassigned) [Example 509, N-(1-(tert-butyl)-6,7-difluoro-1H-benzo[d]imidazol-2-yl)-2-(2,2,3,3-tetrafluorocyclobutyl)acetamide]	< 1
CC(C(=O)Nc1nc2c(F)cc(C#N)cc2n1C1(C)CCC1)C1(C(F)(F)F)CC1 (single isomer, unassigned) [Example 503, N-(6-cyano-4-fluoro-1-(1-methylcyclobutyl)-1H-benzo[d]imidazol-2-yl)-2-(1-(trifluoromethyl)cyclopropyl)propanamide]	< 1
CC1(n2c(NC(=O)CC3(C(F)(F)F)CC3)nc3cc(F)ccc32)CCC1 [Example 527, N-(5-fluoro-1-(1-methylcyclobutyl)-1H-benzo[d]imidazol-2-yl)-2-(1-(trifluoromethyl)cyclopropyl)acetamide]	< 1
CC1(n2c(NC(=O)CC3(C(F)(F)F)CC3)nc3cc(F)c(F)c(F)c32)CCC1 [Example 534, N-(5,6,7-trifluoro-1-(1-methylcyclobutyl)-1H-benzo[d]imidazol-2-yl)-2-(1-(trifluoromethyl)cyclopropyl)acetamide]	< 1
CC1(n2c(NC(=O)CC3(C(F)(F)F)CC3)nc3cc(F)c(F)cc32)CCC1 [Example 538, N-(5,6-difluoro-1-(1-methylcyclobutyl)-1H-benzo[d]imidazol-2-yl)-2-(1-(trifluoromethyl)cyclopropyl)acetamide]	< 1
CC(C)(C)n1c(NC(=O)CC(C)(C)C(F)(F)F)nc2cc(F)cc(F)c21 [Example 530, N-(1-(tert-butyl)-5,7-difluoro-1H-benzo[d]imidazol-2-yl)-4,4,4-trifluoro-3,3-dimethylbutanamide]	< 1
CC(C)(C)n1c(NC(=O)CC2CC(F)(F)C2(F)F)nc2c(F)cc(F)cc21 (single isomer, unassigned) [Example 560, N-(1-(tert-butyl)-4,6-difluoro-1H-benzo[d]imidazol-2-yl)-2-(2,2,3,3-tetrafluorocyclobutyl)acetamide]	< 1
CC1(n2c(NC(=O)CC3CC(F)(F)C3(F)F)nc3cc(F)ccc32)CCC1 (single isomer, unassigned) [Example 526, N-(5-fluoro-1-(1-methylcyclobutyl)-1H-benzo[d]imidazol-2-yl)-2-(2,2,3,3-tetrafluorocyclobutyl)acetamide]	< 1
CC(C)(O)c1ccc2nc(NC(=O)Cc3ccc(F)cc3F)n(C3(C)CCC3)c2c1 [Example 505, 2-(2,4-difluorophenyl)-N-(6-(2-hydroxypropan-2-yl)-1-(1-methylcyclobutyl)-1H-benzo[d]imidazol-2-yl)acetamide]	< 1
CC(C(=O)Nc1nc2ccc(C(C)(C)O)cc2n1C1(C)CCC1)C(C)(C)C(F)(F)F (single isomer, unassigned) [Example 492, 4,4,4-trifluoro-N-(6-(2-hydroxypropan-2-yl)-1-(1-methylcyclobutyl)-1H-benzo[d]imidazol-2-yl)-2,3,3-trimethylbutanamide]	< 1
CC(C)(C)n1c(NC(=O)CC2CC(F)(F)C2(F)F)nc2cc(F)c(F)cc21 (single isomer, unassigned) [Example 558, N-(1-(tert-butyl)-5,6-difluoro-1H-benzo[d]imidazol-2-yl)-2-(2,2,3,3-tetrafluorocyclobutyl)acetamide]	1 to 3
CC1(n2c(NC(=O)CC3(C(F)(F)F)CC3)nc3cc(F)cc(F)c32)CCC1 [Example 522, N-(5,7-difluoro-1-(1-methylcyclobutyl)-1H-benzo[d]imidazol-2-yl)-2-(1-(trifluoromethyl)cyclopropyl)acetamide]	< 1
CC(C)(C)CC(=O)Nc1nc2cccc(OC(F)(F)F)c2n1C1CCC1 [Example 516, N-(1-cyclobutyl-7-(trifluoromethoxy)-1H-benzo[d]imidazol-2-yl)-3,3-dimethylbutanamide]	< 1
CC(C(=O)Nc1nc2c(F)cc(C#N)cc2n1C1(C)CCC1)C1(C(F)(F)F)CC1 (single isomer, unassigned) [Example 494, N-(6-cyano-4-fluoro-1-(1-methylcyclobutyl)-1H-benzo[d]imidazol-2-yl)-2-(1-(trifluoromethyl)cyclopropyl)propanamide]	< 1
CC1(n2c(NC(=O)CC3CC(F)(F)C3(F)F)nc3ccc(C#N)c(OC(F)(F)F)c32)CCC1 (single isomer, unassigned) [Example 493, N-(6-cyano-1-(1-methylcyclobutyl)-7-(trifluoromethoxy)-1H-benzo[d]imidazol-2-yl)-2-(2,2,3,3-tetrafluorocyclobutyl)acetamide]	< 1
COc1cc(C#N)cc2c1nc(NC(=O)CC1CC(F)(F)C1(F)F)n2C(C)(C)C (single isomer, unassigned) [Example 506, N-(1-(tert-butyl)-6-cyano-4-methoxy-1H-benzo[d]imidazol-2-yl)-2-(2,2,3,3-tetrafluorocyclobutyl)acetamide]	< 1
CC1(n2c(NC(=O)CC3CC(F)(F)C3(F)F)nc3c(F)cc(C#N)c(F)c32)CCC1 (single isomer, unassigned) [Example 504, N-(6-cyano-4,7-difluoro-1-(1-methylcyclobutyl)-1H-benzo[d]imidazol-2-yl)-2-(2,2,3,3-tetrafluorocyclobutyl)acetamide]	< 1
N#Cc1ccc2nc(NC(=O)CC3CC(F)(F)C3(F)F)n(-c3ccc(F)cc3)c2c1 (single isomer, unassigned) [Example 551, N-(6-cyano-1-(4-fluorophenyl)-1H-benzo[d]imidazol-2-yl)-2-(2,2,3,3-tetrafluorocyclobutyl)acetamide]	< 1
COc1cc(C#N)cc2c1nc(NC(=O)CC1CC(F)(F)C1(F)F)n2C(C)(C)C (stereo not drawn) [Example 514, N-(1-(tert-butyl)-6-cyano-4-methoxy-1H-benzo[d]imidazol-2-yl)-2-(2,2,3,3-tetrafluorocyclobutyl)acetamide]	< 1
CC1(n2c(NC(=O)CC3CC(F)(F)C3(F)F)nc3cc(F)cc(C#N)c32)CCC1 (single isomer, unassigned) [Example 546, N-(7-cyano-5-fluoro-1-(1-methylcyclobutyl)-1H-benzo[d]imidazol-2-yl)-2-(2,2,3,3-tetrafluorocyclobutyl)acetamide]	< 1
